In assay [1] the target is T1, bovine adrenal gland receptor preparations (Bos taurus, UniProt P25104).
T1 construct: aliquots of a membrane preparation of bovine adrenal cortex in tris buffer; from tissue; host or cells: bovine adrenal cortex membranes
T1 sequence (P25104 1-359): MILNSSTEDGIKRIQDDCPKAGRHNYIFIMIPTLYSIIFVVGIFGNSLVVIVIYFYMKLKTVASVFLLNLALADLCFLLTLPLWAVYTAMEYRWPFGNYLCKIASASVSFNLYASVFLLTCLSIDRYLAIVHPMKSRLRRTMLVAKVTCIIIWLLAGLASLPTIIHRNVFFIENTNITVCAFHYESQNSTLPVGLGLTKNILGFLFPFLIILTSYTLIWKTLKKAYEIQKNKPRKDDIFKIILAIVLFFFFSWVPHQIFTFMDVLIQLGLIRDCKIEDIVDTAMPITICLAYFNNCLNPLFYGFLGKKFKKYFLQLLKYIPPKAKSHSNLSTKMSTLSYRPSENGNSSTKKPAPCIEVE
Nature of the assay: inhibition of angiotensin II bonding to bovine adrenal gland receptor preparations. The class given is binding. How it is done:
After 45 minutes the incubation was stopped by rapid filtration through glass fibre filters. The radioactivity associated with the filter was determined in a […] at a counting efficiency of 80%.

Assay [2] has as its target T2, angiotensin II (Rattus norvegicus, UniProt P25095).
T2 construct: The measured parameter is the increase in the arterial blood pressure; from tissue; host or cells: whole anaesthetised rat with destroyed spine, in vivo (vascular receptors)
T2 sequence (P25095 1-359): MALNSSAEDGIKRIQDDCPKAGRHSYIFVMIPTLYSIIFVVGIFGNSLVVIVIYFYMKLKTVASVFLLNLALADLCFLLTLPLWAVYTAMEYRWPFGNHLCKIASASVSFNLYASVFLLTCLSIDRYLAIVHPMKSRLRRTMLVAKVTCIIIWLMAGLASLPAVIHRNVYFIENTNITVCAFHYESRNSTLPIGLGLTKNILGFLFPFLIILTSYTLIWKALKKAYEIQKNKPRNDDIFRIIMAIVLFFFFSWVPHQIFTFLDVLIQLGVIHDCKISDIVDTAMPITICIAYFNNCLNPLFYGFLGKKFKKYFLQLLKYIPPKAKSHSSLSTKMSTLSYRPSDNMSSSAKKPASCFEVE
Nature of the assay: displacement of angiotensin II dose-effect curves (increase in arterial blood pressure) in rats, pA2. The conditions noted are these: average, angiotensin II antagonism in rats, 10, 20 and 30 mg/kg i.v. The format is in vivo. How it is done:
a) rats (male, 180-220 g) are anaesthetised using sodium hexobarbital (150 mg/kg i.p.). After the anaesthetic has taken effect, a tracheal cannula is inserted, the spine is destroyed in the animals and then they are immediately respirated artifically using a respiratory pump. The arterial blood pressure is recorded via a cannula in the carotid artery by means of a Bell & Howell pressure sensor. Substances are administered via a cannula in the jugular vein. Test substances are administered in three doses (10, 20 and 30 mg/kg i.v.), wherein one dose of substance is tested per animal. […] The measured parameter is the increase in the arterial blood pressure. These dose-effect graphs are compared with standard graphs for angiotensin II without test substances. A computer program determines the displacements to the right of the dose-effect graphs for angiotensin II as a result of test substances, and calculates corresponding pA2 values for the test substances.

Read-outs that look alike come from different tables or passages of the source.

The values that follow come from patent US5541229A, “Benzimidazoles and medicaments containing these compounds” (Dr. Karl Thomae GmbH, priority 1989, dated 1996).

Consider `CCCCCCNC(=O)N(CCc1ccccc1)c1ccc2nc(CCCC)n(Cc3ccc(-c4ccccc4C(=O)O)cc3)c2c1` [AA], for which the IC50 in assay [1] amounted to 0.1 µM.

Molecule `CCCCCCNC(=O)N(Cc1ccccc1)c1ccc2nc(CCCC)n(Cc3ccc(-c4ccccc4C(=O)O)cc3)c2c1` [A] returned an IC50 in assay [1] of 0.029 µM. Besides, the pA2 values in assay [2] is listed as 7,23. Regarding `CCCCc1nc2ccc(NC(=O)C3CCCC3)cc2n1Cc1ccc(-c2ccccc2C(=O)O)cc1` [BB], in assay [1], the IC50 came to 0.046 µM. Consider `CCCCc1nc2ccc(N(CCCC)C(=O)NC3CCCCC3)cc2n1Cc1ccc(-c2ccccc2C(=O)O)cc1` [B], for which the IC50 in assay [1] stood at 0.029 µM. The pA2 values in assay [2] is 6,63.

In assay [1], `CCCCc1nc2ccc(N3C(=O)[C@H]4CCCC[C@H]4C3=O)cc2n1Cc1ccc(-c2ccccc2-c2nn[nH]n2)cc1` [CC] returned a concentration for half-maximal inhibition (IC50) of 1 µM. For the same molecule, the pA2 values in assay [2] was 8,54. In assay [1], `CCCCc1nc2ccc(N(CC)C(=O)NC3CCCCC3)cc2n1Cc1ccc(-c2ccccc2C(=O)O)cc1` [C] returned a half-maximal inhibitory concentration (IC50) of 0.031 µM. Besides, the pA2 values in assay [2] was 6,36.

As to `CCCCc1nc2ccc(N(CCC)C(=O)NC3CCCCC3)cc2n1Cc1ccc(-c2ccccc2C(=O)O)cc1` [D], in assay [1], the half-inhibitory concentration (IC50) turned out to be 0.044 µM. The pA2 values in assay [2] is listed as 6,59. In assay [1], `CCCCc1nc2ccc(N(C)C(=O)NC3CCCCC3)cc2n1Cc1ccc(-c2ccccc2C(=O)O)cc1` [E] showed an IC50 of 0.046 µM. Moreover, the pA2 values in assay [2] is recorded as 7,34. On to `CCCCCN(C(=O)NC1CCCCC1)c1ccc2nc(CCCC)n(Cc3ccc(-c4ccccc4C(=O)O)cc3)c2c1` [G], for which the half-inhibitory concentration (IC50) in assay [1] stood at 0.046 µM. For the same molecule, the pA2 values in assay [2] is 6,89. `CCCCc1nc2ccc(N(Cc3ccccc3)C(=O)NC)cc2n1Cc1ccc(-c2ccccc2C(=O)O)cc1` [H] yielded a concentration for half-maximal inhibition (IC50) in assay [1] of 0.051 µM. For the same molecule, the pA2 values in assay [2] is reported as 6,48.

Take `CCCCc1nc2ccc(N3Cc4ccccc4C3=O)cc2n1Cc1ccc(-c2ccccc2C(=O)O)cc1` [I]: 0.051 µM corresponded to half-maximal inhibition in assay [1] (IC50). The pA2 values in assay [2] was 6,12. The molecule `CCCCc1nc2ccc(N(Cc3ccccc3)C(=O)NC3CCCCC3)cc2n1Cc1ccc(-c2ccccc2C(=O)O)cc1` [J] showed an IC50 in assay [1] of 0.054 µM. Besides, the pA2 values in assay [2] is reported as 7,38. With `CCCCC(=O)Nc1ccc2nc(CCCC)n(Cc3ccc(-c4ccccc4C(=O)O)cc3)c2c1` [K], in assay [1], the IC50 was 0.057 µM. The pA2 values in assay [2] is recorded as 6,38. The molecule `CCCCc1nc2ccc(NC(=O)CC)cc2n1Cc1ccc(-c2ccccc2C(=O)O)cc1` [L] showed an IC50 in assay [1] of 0.058 µM. Moreover, the pA2 values in assay [2] is 6,04. The corresponding values for `CCCCc1nc2ccc(NC(=O)C(C)C)cc2n1Cc1ccc(-c2ccccc2C(=O)O)cc1` [M] are 0.061 µM and 6,87. As to `CCCCc1nc2ccc(NC(=O)NC3CCCCO3)cc2n1Cc1ccc(-c2ccccc2C(=O)O)cc1` (stereo not drawn) [N], in assay [1], the midpoint of inhibition, the IC50, lay at 0.065 µM. In assay [2], the pA2 values was 7,02. The matching figures for `CCCCNC(=O)Nc1ccc2nc(CCCC)n(Cc3ccc(-c4ccccc4C(=O)O)cc3)c2c1` [O]: 0.065 µM and 6,46.

In turn, `CCCCc1nc2ccc(NC(=O)CCC)cc2n1Cc1ccc(-c2ccccc2C(=O)O)cc1` [P] displayed a concentration for half-maximal inhibition (IC50) in assay [1] of 0.067 µM. Moreover, the pA2 values in assay [2] was 6,46. `CCCCc1nc2ccc(N(Cc3ccccc3)C(=O)OCC)cc2n1Cc1ccc(-c2ccccc2C(=O)O)cc1` [Q]: the IC50 in assay [1] is 0.068 µM. Also, in assay [2], the pA2 values is 6,83. The corresponding values for `CCCCc1nc2ccc(NC(=O)N(C)C)cc2n1Cc1ccc(-c2ccccc2C(=O)O)cc1` [R] are 0.072 µM and 7,16. The matching figures for `CCCCCCN(C(=O)NC1CCCCC1)c1ccc2nc(CCCC)n(Cc3ccc(-c4ccccc4C(=O)O)cc3)c2c1` [S]: 0.072 µM and 6,69. For the molecule `CCCCc1nc2ccc(NC(=O)NCCCCCO)cc2n1Cc1ccc(-c2ccccc2C(=O)O)cc1` [T], the midpoint of inhibition in assay [1], the IC50, lay at 0.076 µM. For the same molecule, the pA2 values in assay [2] is reported as 7,20.

As for `CCCCCN(C(=O)NC)c1ccc2nc(CCCC)n(Cc3ccc(-c4ccccc4C(=O)O)cc3)c2c1` [U], in assay [1], the half-inhibitory concentration (IC50) was 0.079 µM. For the same molecule, the pA2 values in assay [2] is recorded as 7,20.

In assay [1] (50% inhibition of the specific 125I-angiotensin II (50 pM) bonding, bovine adrenal cortex membranes, 45 minutes), `CCCCc1nc2ccc(NC(=O)C3CCCCC3)cc2n1Cc1ccc(-c2ccccc2C(=O)O)cc1` [V] had an IC50 of 0.084 µM. Also, the pA2 values in assay [2] was 7,26.

Turning to `CCCCNC(=O)N(C)c1ccc2nc(CCCC)n(Cc3ccc(-c4ccccc4C(=O)O)cc3)c2c1` [W], in assay [1], the half-inhibitory concentration (IC50) came to 0.086 µM. Further, the pA2 values in assay [2] is given as 6,28. `CCCCc1nc2c(C)ccc(O)c2n1Cc1ccc(-c2ccccc2-c2nn[nH]n2)cc1` [X]: in assay [1], 0.099 µM corresponded to half-maximal inhibition (IC50). In addition, the pA2 values in assay [2] is 6,57.

Take `CCCCc1nc2ccc(N3C(=O)[C@H]4CCCC[C@H]4C3=O)cc2n1Cc1ccc(-c2ccccc2C(=O)O)cc1` [Y]: the half-maximal inhibitory concentration (IC50) in assay [1] came to 0.15 µM. Moreover, in assay [2], the pA2 values was 6,97.

Molecule `CCCCc1nc2ccc(N(Cc3ccccc3)C(=O)N(C)C)cc2n1Cc1ccc(-c2ccccc2C(=O)O)cc1` [Z] displayed a 50% inhibitory concentration (IC50) in assay [1] of 0.133 µM. In assay [2], the pA2 values is on record as 7,15.

By IC50 is commonly meant the midpoint of a concentration-inhibition curve. Read a high IC50 as lower potency.
